Here are results for 31 molecules from ChEMBL document CHEMBL1142475, “1,2,3-Thiadiazole thioacetanilides as a novel class of potent HIV-1 non-nucleoside reverse transcriptase inhibitors” (Bioorg Med Chem Lett, 2008).

For series [1], the system named is Human immunodeficiency virus 1. The series is described as follows: Antiviral activity against HIV1 3B in human MT4 cells assessed as protection of cell against virus-induced cytopathogenicity. It is filed as functional, organism-based. Conditions: Human immunodeficiency virus 1, 3B; call rule not given here. In general terms: Cytopathic effects are the visible damage that an infection or toxin causes in cultured cells.

Series [2] in a line: Cytotoxicity against human MT4 cells. It is filed as cell-based.
Series [3] can be described thus: Selectivity index, ratio of CC50 for human MT4 cells to EC50 for HIV1 3B. Format: toxicity, cell-based. Conditions: for Activity: mt4; for selectivity ratio: MT4 cells, read-out: Ratio CC50/EC50.

In the case of `COc1ccc(-c2nnsc2SCC(=O)Nc2ccccc2F)cc1`, the EC50 in series [1] was found to be 333 µM. Besides, the CC50 in series [2] was greater than 333 µM. In series [3], the Activity entry was “Not Active”.

Take `COc1ccc(-c2nnsc2SCC(=O)Nc2ccccc2Cl)cc1`: in series [1], the 50% effective concentration (EC50) is 2.63 µM. The molecule also returned a CC50 in series [2] greater than 319 µM. Also, in series [3], the selectivity ratio was greater than 121.

With `O=C(CSc1snnc1-c1ccc(F)cc1F)Nc1ccccc1Cl`, the EC50 in series [1] worked out at 1.23 µM. Further, the CC50 in series [2] worked out at 178 µM. Moreover, the selectivity ratio in series [3] came out at 146.

On to `O=C(CSc1snnc1-c1ccc(F)cc1F)Nc1ccccc1Br`, for which the EC50 in series [1] was determined as 2.26 µM. This molecule registered a CC50 in series [2] of 144 µM.

Take `O=C(CSc1snnc1-c1ccc(Cl)cc1Cl)Nc1ccccc1F`: the EC50 in series [1] came out at 0.135 µM. This molecule registered a CC50 in series [2] of 19.5 µM. In addition, the selectivity ratio in series [3] is 145.

In the case of `Cc1ccc(-n2c(C)nnc2SCC(=O)Nc2ccccc2)cc1`, the EC50 in series [1] is 2.05 µM.

Turning to `Cc1ccc(NC(=O)CSc2snnc2-c2ccc(Cl)cc2Cl)c(Br)c1`, the EC50 in series [1] worked out at 0.204 µM. In series [2], this molecule showed a CC50 greater than 256 µM. Besides, the selectivity ratio in series [3] is greater than 1260.

For `O=C1Nc2ccc(Cl)cc2[C@@](C#CC2CC2)(C(F)(F)F)O1` [EFAVIRENZ], the EC50 in series [1] was 0.0044 µM. The CC50 in series [2] was greater than 6.34 µM. The selectivity ratio in series [3] was greater than 1430.

As to `Cc1ccc(NC(=O)CSc2snnc2-c2ccccc2)c(Br)c1`, the EC50 in series [1] turned out to be 13.7 µM. Moreover, in series [2], the CC50 is greater than 297 µM. Further, the selectivity ratio in series [3] is greater than 22.

As for `NS(=O)(=O)c1ccc(NC(=O)CSc2nnc(Br)n2-c2ccc(C3CC3)c3ccccc23)c(Cl)c1`, in series [1], the EC50 was 0.14 µM.

As to `O=C(CSc1snnc1-c1ccccc1)Nc1ccccc1Cl`, in series [1], the EC50 is 26.1 µM. Besides, in series [2], the CC50 is greater than 345 µM. Further, the selectivity ratio in series [3] is greater than 13.

As to `COC(=O)c1ccc(NC(=O)CSc2snnc2-c2ccc(OC)cc2)c(Br)c1`, the EC50 in series [1] was 2 µM. Besides, it took 195 µM to reach half-maximal cytotoxicity in series [2] (CC50). Moreover, in series [3], the selectivity ratio worked out at 97.

For the molecule `O=C(CSc1snnc1-c1ccccc1)Nc1ccccc1Br`, in series [1], the EC50 is 22.4 µM. In series [2], the CC50 was greater than 308 µM. The selectivity ratio in series [3] is greater than 14.

In the case of `CC(C)Nc1cccnc1N1CCN(C(=O)c2cc3cc(NS(C)(=O)=O)ccc3[nH]2)CC1` [DELAVIRDINE], the EC50 in series [1] worked out at 0.32 µM. Also, the CC50 in series [2] was greater than 3.83 µM. For the same molecule, the selectivity ratio in series [3] was greater than 12.

`CCOC(=O)c1ccc(NC(=O)CSc2snnc2-c2ccc(OC)cc2)c(Br)c1`: the EC50 in series [1] was determined as 3.01 µM. This molecule also displayed a CC50 in series [2] greater than 246 µM. For the same molecule, the selectivity ratio in series [3] was greater than 82.

For the molecule `O=C(CSc1snnc1-c1ccc(Cl)cc1Cl)Nc1ccccc1Br`, the EC50 in series [1] came out at 0.149 µM. The molecule also gave a CC50 in series [2] of no less than 147 µM. Besides, in series [3], the selectivity ratio was no less than 981.

As for `O=C(CSc1snnc1-c1ccccc1)Nc1ccccc1F`, the EC50 in series [1] was found to be 362 µM. In series [2], this molecule showed a CC50 greater than 362 µM. Moreover, the Activity result in series [3] is given as “Not Active”.

With `COc1ccc(-c2nnsc2SCC(=O)Nc2ccccc2[N+](=O)[O-])cc1`, in series [1], the EC50 was 0.99 µM. This molecule yielded a CC50 in series [2] of no less than 281 µM. Further, the selectivity ratio in series [3] is no less than 283.

For `CCOC(=O)c1ccc(NC(=O)CSc2snnc2-c2ccc(Cl)cc2Cl)c(Br)c1`, in series [1], the EC50 amounted to 0.099 µM. Moreover, the half-maximal cytotoxic concentration (CC50) in series [2] is greater than 228 µM. In series [3], the selectivity ratio is greater than 2300.

As for `O=C(CSc1snnc1-c1ccc(Cl)cc1Cl)Nc1ccccc1Cl`, the concentration for a half-maximal effect (EC50) in series [1] turned out to be 0.118 µM. Half-maximal cytotoxicity in series [2] (CC50) was put at 111 µM. The selectivity ratio in series [3] stood at 943.

Turning to `CCOC(=O)c1ccc(NC(=O)CSc2snnc2-c2ccccc2)c(Br)c1`, the EC50 in series [1] came out at 5.21 µM. Moreover, the CC50 in series [2] is no less than 232 µM. The selectivity ratio in series [3] is no less than 45.

For `COC(=O)c1ccc(NC(=O)CSc2snnc2-c2ccccc2)c(Br)c1`, in series [1], the EC50 is 5.1 µM. Moreover, in series [2], the CC50 was greater than 269 µM. Further, the selectivity ratio in series [3] is greater than 53.

As to `O=C(CSc1snnc1-c1ccc(F)cc1F)Nc1ccccc1F`, the EC50 in series [1] was determined as 5.45 µM. In series [2], this molecule displayed a CC50 of 148 µM. The selectivity ratio in series [3] was 27.

On to `Cc1ccc(NC(=O)CSc2snnc2-c2ccc(F)cc2F)c(Br)c1`, for which the EC50 in series [1] was 1.45 µM. The molecule further showed a CC50 in series [2] greater than 274 µM. Also, in series [3], the selectivity ratio was greater than 189.

With `COc1ccc(-c2nnsc2SCC(=O)Nc2ccccc2Br)cc1`, in series [1], the EC50 turned out to be 3.19 µM. Further, the CC50 in series [2] was greater than 286 µM. The selectivity ratio in series [3] is greater than 90.

Take `Cc1cn([C@H]2C[C@H](N=[N+]=[N-])[C@@H](CO)O2)c(=O)[nH]c1=O` [ZIDOVUDINE]: the EC50 in series [1] stood at 0.0151 µM. The CC50 in series [2] was greater than 93.5 µM. In addition, the selectivity ratio in series [3] was greater than 6190.

As to `COc1ccc(-c2nnsc2SCC(=O)Nc2ccc(C)cc2Br)cc1`, the EC50 in series [1] was 5.06 µM. Moreover, the cytotoxic concentration (CC50) in series [2] is 249 µM. In addition, the selectivity ratio in series [3] was found to be 49.

Regarding `O=C(CSc1snnc1-c1ccccc1)Nc1ccccc1[N+](=O)[O-]`, the EC50 in series [1] was no less than 54.2 µM. Further, the half-maximal cytotoxic concentration (CC50) in series [2] was no less than 247 µM. The Activity entry in series [3] is recorded as “Not Active”.

Turning to `O=C(CSc1snnc1-c1ccc(F)cc1F)Nc1ccccc1[N+](=O)[O-]`, in series [1], the EC50 is 4.14 µM. This molecule also came in with a CC50 in series [2] of 165 µM. In addition, in series [3], the selectivity ratio is 40.

`Cc1ccnc2c1NC(=O)c1cccnc1N2C1CC1` [NEVIRAPINE] came in with a cytotoxic concentration (CC50) in series [2] greater than 15 µM.

As for `O=C(CSc1snnc1-c1ccc(Cl)cc1Cl)Nc1ccccc1[N+](=O)[O-]`, the EC50 in series [1] is 0.059 µM. In series [2], this molecule registered a CC50 greater than 283 µM. Further, the selectivity ratio in series [3] was greater than 4880.

By EC50 is commonly meant the concentration that produces a half-maximal response. The term CC50 denotes the concentration at which the toxic effect on the cells reaches its halfway point.
